# Assay results as given in patent publication US20260049101A1, “TOPICAL TREATMENT OF SKIN CANCER USING OLIGOPEPTIDES” (BACOBA AG, priority 2022, published 2026).
# Numbered stars: 1 amine (or outer) side, 2 acyl side, 3 side chain; on linkers, the order of the positions; unused ones are H or OH. Square brackets hold non-standard residues; d marks the D form. Peptide text beside a SMILES is read from it. * marks the point of attachment. X7 = O=C([C@H](Cc1nc2ccccc2o1)N[*:1])[*:2]; Abu(4,4,4-F3) = N[C@@H](CC(F)(F)F)C(=O)O; NH(2-morpholinoethyl) = C(CN1CCOCC1)N*; X4 = C[C@](N[*:1])(C(=O)[*:2])C(F)(F)F; NH(1-CH2NMe2-cBu) = CN(C)CC1(N*)CCC1; Oxazole4CO(2-Me) = Cc1nc(C(=O)*)co1; β3hAib = CC(C)(CC(=O)[*:2])N[*:1]; Benzoyl(4-F) = O=C(c1ccc(F)cc1)*; hCha = N[C@@H](CCC1CCCCC1)C(=O)O; Cha = N[C@@H](CC1CCCCC1)C(=O)O; β3hL = CC(C)C[C@H](N)CC(=O)O; Nle = CCCC[C@H](N)C(=O)O; Aib = CC(C)(N)C(=O)O; βAla = NCCC(=O)O
# System: cutaneous squamous cell carcinoma cell line SCC12
# Test: In vitro anti-proliferative assay (resazurin) in SCC12
# Format: cell-based
# Settings: SCC12, 72 hours
# From the text: Methodology. The cutaneous squamous cell carcinoma cell culture SCC12 was cultivated in keratinocyte-SFM media (KSFM, Cat #17005042, Gibco) supplemented with human recombinant epidermal growth factor 1-53 (EGF 1-53) and bovine pituitary extract (BFE).
# Vehicle treated wells were set to 100% viability.
row,Compound,IC50 [nM]
1,"CC(C)C[C@H](NC(=O)[C@H](CCC1CCCCC1)NC(=O)[C@@H]1CCCN1C(=O)c1ccc(F)cc1)C(=O)NC(C)(C)C(=O)N[C@@H](CC(C)C)C(=O)N[C@@H](CC(C)C)C(=O)NC(C)(C)C(=O)NC(C)(C)C(=O)NCCC(=O)NCCN1CCOCC1 [Compound 8341, (2S)-2-[(2S)-4-cyclohexyl-2-{[(2S)-1-(4-fluorobenzoyl)pyrrolidin-2-yl]formamido}butanamido]-4-methyl-N-(1-methyl-1-{[(1S)-3-methyl-1-{[(1S)-3-methyl-1-{[1-methyl-1-({1-methyl-1-[(2-{[2-(morpholin-4-yl)ethyl]carbamoyl}ethyl)carbamoyl]ethyl}carbamoyl)ethyl]carbamoyl}butyl]carbamoyl}butyl]carbamoyl}ethyl)pentanamide] ({Benzoyl(4-F)}-P[hCha]L[Aib]LL[Aib][Aib][βAla]-{NH(2-morpholinoethyl)})",1020
2,"Cc1nc(C(=O)N2CCC[C@H]2C(=O)N[C@@H](CC2CCCCC2)C(=O)N[C@@H](CC(C)C)C(=O)NC(C)(C)C(=O)N[C@@H](CC(C)C)C(=O)N[C@@H](CC(C)C)C(=O)NC(C)(C)C(=O)NC(C)(C)C(=O)NCCC(=O)NC2(CN(C)C)CCC2)co1 [Compound 7059, (2S)-2-[(2S)-3-cyclohexyl-2-{[(2S)-1-(2-methyl-1,3-oxazole-4-carbonyl)pyrrolidin-2-yl]formamido}propanamido]-N-(1-{[(1S)-1-{[(1S)-1-({1-[(1-{[2-({1-[(dimethylamino)methyl]cyclobutyl}carbamoyl)ethyl]carbamoyl}-1-methylethyl)carbamoyl]-1-methylethyl}carbamoyl)-3-methylbutyl]carbamoyl}-3-methylbutyl]carbamoyl}-1-methylethyl)-4-methylpentanamide] ({Oxazole4CO(2-Me)}-P[Cha]L[Aib]LL[Aib][Aib][βAla]-{NH(1-CH2NMe2-cBu)})",500
3,"CC(C)C[C@H](NC(=O)[C@H](CCC1CCCCC1)NC(=O)[C@@H]1CCCN1C(=O)c1ccc(F)cc1)C(=O)NC(C)(C)C(=O)N[C@@H](CC(C)C)C(=O)N[C@@H](CC(F)(F)F)C(=O)NC(C)(C)C(=O)NC(C)(C)C(=O)NCCC(=O)NC1(CN(C)C)CCC1 [Compound 21369, (2S)-2-[(2S)-4-cyclohexyl-2-{[(2S)-1-(4-fluorobenzoyl)-pyrrolidin-2-yl]formamido}butan-amido]-N-(1-{[(1S)-1-{[(1S)-1-({1-[(1-{[2-({1-[(dimethylamino)methyl]cyclobutyl}carba-moyl)ethyl]carbamoyl}-1-methylethyl)carbamoyl]-1-methylethyl}carbamoyl)-3,3,3-trifluoropropyl]carbamoyl}-3-methylbutyl]carbamoyl}-1-methylethyl)-4-methylpentanamide] ({Benzoyl(4-F)}-P[hCha]L[Aib]L[Abu(4,4,4-F3)][Aib][Aib][βAla]-{NH(1-CH2NMe2-cBu)})",167
4,"CC(C)C[C@H](NC(=O)[C@H](CCC1CCCCC1)NC(=O)[C@@H]1CCCN1C(=O)c1ccc(F)cc1)C(=O)NC(C)(C)C(=O)N[C@@H](CC(C)C)C(=O)N[C@@H](CC(C)C)C(=O)NC(C)(C)C(=O)NC(C)(C)CC(=O)NCCC(=O)NC1(CN(C)C)CCC1 [Compound 21365, (2S)-2-[(2S)-4-cyclohexyl-2-{[(2S)-1-(4-fluorobenzoyl)pyrrolidin-2-yl]formamido}butan-amido]-N-(1-{[(1S)-1-{[(1S)-1-({1-[(1-{[2-({1-[(dimethylamino)methyl]cyclobutyl}carbamoyl)ethyl]carbamoyl}-2-methylpropan-2-yl)carbamoyl]-1-methylethyl}carbamoyl)-3-methylbutyl]carbamoyl}-3-methylbutyl]carbamoyl}-1-methylethyl)-4-methylpentanamide] ({Benzoyl(4-F)}-P[hCha]L[Aib]LL[Aib][β3hAib][βAla]-{NH(1-CH2NMe2-cBu)})",511
5,"CCCC[C@H](NC(=O)[C@@H]1CCCN1C(=O)c1coc(C)n1)C(=O)N[C@@H](CC(C)C)C(=O)NC(C)(C)C(=O)N[C@@H](CC(C)C)C(=O)N[C@@H](CC(C)C)C(=O)NC(C)(C)C(=O)NC(C)(C)C(=O)NCCC(=O)NC1(CN(C)C)CCC1 [Compound 6781, (2S)—N-[(1S)-1-[(1-{[(1S)-1-{[(1S)-1-({1-[(1-{[2-({1-[(dimethylamino)methyl]cyclobutyl}carbamoyl)ethyl]carbamoyl}-1-methylethyl)carbamoyl]-1-methylethyl}carbamoyl)-3-methylbutyl]carbamoyl}-3-methylbutyl]carbamoyl}-1-methylethyl)carbamoyl]-3-methylbutyl]-2-{[(2S)-1-(2-methyl-1,3-oxazole-4-carbonyl)pyrrolidin-2-yl]formamido}hexanamide] ({Oxazole4CO(2-Me)}-P[Nle]L[Aib]LL[Aib][Aib][βAla]-{NH(1-CH2NMe2-cBu)})",6850
6,"CC(C)C[C@H](NC(=O)[C@H](CCC1CCCCC1)NC(=O)[C@@H]1CCCN1C(=O)c1ccc(F)cc1)C(=O)NC(C)(C)C(=O)N[C@@H](CC(C)C)C(=O)N[C@@H](CC(C)C)C(=O)NC(C)(C)C(=O)N[C@@](C)(C(=O)NCCC(=O)NC1(CN(C)C)CCC1)C(F)(F)F [Compound 21359, (2S)-2-[(2S)-4-cyclohexyl-2-{[(2S)-1-(4-fluorobenzoyl)pyrrolidin-2-yl]formamido}butanamido]-N-(1-{[(1S)-1-{[(1S)-1-[(1-{[(1S)-1-{[2-({1-[(dimethylamino)methyl]cyclobutyl}carbamoyl)ethyl]carbamoyl}-2,2,2-trifluoro-1-methylethyl]carbamoyl}-1-methylethyl)carbamoyl]-3-methylbutyl]carbamoyl}-3-methylbutyl]carbamoyl}-1-methylethyl)-4-methylpentanamide] ({Benzoyl(4-F)}-P[hCha]L[Aib]LL[Aib][X4][βAla]-{NH(1-CH2NMe2-cBu)})",360
7,"Cc1nc(C(=O)N2CCC[C@H]2C(=O)N[C@@H](CCC2CCCCC2)C(=O)N[C@@H](CC(C)C)C(=O)NC(C)(C)C(=O)N[C@@H](CC(C)C)C(=O)N[C@@H](CC(C)C)C(=O)NC(C)(C)C(=O)NC(C)(C)C(=O)NCCC(=O)NC2(CN(C)C)CCC2)co1 [Compound 6025, (2S)-2-[(2S)-4-cyclohexyl-2-{[(2S)-1-(2-methyl-1,3-oxazole-4-carbonyl)pyrrolidin-2-yl]formamido}butanamido]-N-(1-{[(1S)-1-{[(1S)-1-({1-[(1-{[2-({1-[(dimethylamino)methyl]cyclobutyl}carbamoyl)ethyl]carbamoyl}-1-methylethyl)carbamoyl]-1-methylethyl}carbamoyl)-3-methylbutyl]carbamoyl}-3-methylbutyl]carbamoyl}-1-methylethyl)-4-methylpentanamide] ({Oxazole4CO(2-Me)}-P[hCha]L[Aib]LL[Aib][Aib][βAla]-{NH(1-CH2NMe2-cBu)})",396
8,"CC(C)C[C@@H](CC(=O)NC(C)(C)C(=O)N[C@@H](CC(C)C)C(=O)N[C@@H](CC(C)C)C(=O)NC(C)(C)C(=O)NC(C)(C)C(=O)NCCC(=O)NC1(CN(C)C)CCC1)NC(=O)[C@H](CCC1CCCCC1)NC(=O)[C@@H]1CCCN1C(=O)c1ccc(F)cc1 [Compound 21314, (3S)-3-[(2S)-4-cyclohexyl-2-{[(2S)-1-(4-fluorobenzoyl)pyrrolidin-2-yl]formamido}butan-amido]-N-(1-{[(1S)-1-{[(1S)-1-({1-[(1-{[2-({1-[(dimethylamino)methyl]cyclobutyl}carba-moyl)ethyl]carbamoyl}-1-methylethyl)carbamoyl]-1-methylethyl}carbamoyl)-3-methylbutyl]carbamoyl}-3-methylbutyl]carbamoyl}-1-methylethyl)-5-methylhexanamide] ({Benzoyl(4-F)}-P[hCha][β3hL][Aib]LL[Aib][Aib][βAla]-{NH(1-CH2NMe2-cBu)})",324
9,"CC(C)C[C@H](NC(=O)[C@H](CCC1CCCCC1)NC(=O)[C@@H]1CCCN1C(=O)c1ccc(F)cc1)C(=O)NCC(C)(C)C(=O)N[C@@H](CC(C)C)C(=O)N[C@@H](CC(C)C)C(=O)NCC(C)(C)C(=O)NCC(C)(C)C(=O)NCCC(=O)NC1(CN(C)C)CCC1 [Compound 21189, (2S)-2-[(2S)-4-cyclohexyl-2-{[(2S)-1-(4-fluorobenzoyl)pyrrolidin-2-yl]formamido}butan-amido]-N-(2-{[(1S)-1-{[(1S)-1-({2-[(2-{[2-({1-[(dimethylamino)methyl]cyclobutyl}carbamoyl)ethyl]carbamoyl}-2,2-dimethylethyl)carbamoyl]-2,2-dimethylethyl}carbamoyl)-3-methylbutyl]carbamoyl}-3-methylbutyl]carbamoyl}-2,2-dimethylethyl)-4-methylpentanamide]",> 10000
10,"CC(C)C[C@H](NC(=O)[C@H](Cc1nc2ccccc2o1)NC(=O)[C@@H]1CCCN1C(=O)c1ccc(F)cc1)C(=O)NC(C)(C)C(=O)N[C@@H](CC(C)C)C(=O)N[C@@H](CC(C)C)C(=O)NC(C)(C)C(=O)NC(C)(C)C(=O)NCCC(=O)NC1(CN(C)C)CCC1 [Compound 7850, (2S)-2-[(2S)-3-(1,3-benzoxazol-2-yl)-2-{[(2S)-1-(4-fluorobenzoyl)pyrrolidin-2-yl]formamido}propanamido]-N-(1-{[(1S)-1-{[(1S)-1-({1-[(1-{[2-({1-[(dimethylamino)methyl]cyclobutyl}carbamoyl)ethyl]carbamoyl}-1-methylethyl)carbamoyl]-1-methylethyl}carbamoyl)-3-methylbutyl]carbamoyl}-3-methylbutyl]carbamoyl}-1-methylethyl)-4-methylpentanamide] ({Benzoyl(4-F)}-P[X7]L[Aib]LL[Aib][Aib][βAla]-{NH(1-CH2NMe2-cBu)})",1040
11,"CC(C)C[C@H](NC(=O)CC(C)(C)NC(=O)[C@H](CC(C)C)NC(=O)[C@H](CCC1CCCCC1)NC(=O)[C@@H]1CCCN1C(=O)c1ccc(F)cc1)C(=O)N[C@@H](CC(C)C)C(=O)NC(C)(C)CC(=O)NC(C)(C)CC(=O)NCCC(=O)NC1(CN(C)C)CCC1 [Compound 21368, (2S)-2-[(2S)-4-cyclohexyl-2-{[(2S)-1-(4-fluorobenzoyl)pyrrolidin-2-yl]formamido}butan-amido]-N-(1-{[(1S)-1-{[(1S)-1-({1-[(1-{[2-({1-[(dimethylamino)methyl]cyclobutyl}carba-moyl)ethyl]carbamoyl}-2-methylpropan-2-yl)carbamoyl]-2-methylpropan-2-yl}carbamoyl)-3-methylbutyl]carbamoyl}-3-methylbutyl]carbamoyl}-2-methylpropan-2-yl)-4-methylpentanamide]",> 10000
